The source made the active and inactive calls. No cut-off for these calls is given here.
Legend:
[1] = target: Mast/stem cell growth factor receptor Kit (Homo sapiens) (UniProt P10721); test: Inhibition of DNA-tagged human KIT assessed as percent of control at 50000 nM by qPCR analysis relative to control; parameters: scale not given: the % may be the effect or the level left
[2] = target: Serine/threonine-protein kinase Nek5 (Homo sapiens) (UniProt Q6P3R8); test: Inhibition of DNA-tagged human NEK5 assessed as percent of control at 50000 nM by qPCR analysis relative to control; parameters: scale not given: the % may be the effect or the level left
[3] = target: cGMP-dependent protein kinase 2 (Homo sapiens) (UniProt Q13237); test: Inhibition of DNA-tagged human PRKG2 assessed as percent of control at 50000 nM by qPCR analysis relative to control; parameters: scale not given: the % may be the effect or the level left
[4] = target: Tyrosine-protein kinase Srms (Homo sapiens) (UniProt Q9H3Y6); test: Inhibition of DNA-tagged human SRMS assessed as percent of control at 50000 nM by qPCR analysis relative to control; parameters: scale not given: the % may be the effect or the level left
[5] = target: Cyclin-dependent kinase 8 (Homo sapiens) (UniProt P49336); test: Inhibition of DNA-tagged human CDK8 assessed as percent of control at 50000 nM by qPCR analysis relative to control; parameters: scale not given: the % may be the effect or the level left
[6] = target: Phosphorylase b kinase gamma catalytic chain, skeletal muscle/heart isoform (Homo sapiens) (UniProt Q16816); test: Inhibition of DNA-tagged human PHKG1 assessed as percent of control at 50000 nM by qPCR analysis relative to control; parameters: scale not given: the % may be the effect or the level left
[7] = target: Cyclin-dependent kinase 18 (Homo sapiens) (UniProt Q07002); test: Inhibition of DNA-tagged human PCTK3 assessed as percent of control at 50000 nM by qPCR analysis relative to control; parameters: scale not given: the % may be the effect or the level left
[8] = target: cGMP-dependent protein kinase 1 (Homo sapiens) (UniProt Q13976); test: Inhibition of DNA-tagged human PRKG1 assessed as percent of control at 50000 nM by qPCR analysis relative to control; parameters: scale not given: the % may be the effect or the level left
[9] = target: Serine/threonine-protein kinase 38-like (Homo sapiens) (UniProt Q9Y2H1); test: Inhibition of DNA-tagged human NDR2 assessed as percent of control at 50000 nM by qPCR analysis relative to control; parameters: scale not given: the % may be the effect or the level left
KG-1 = test: Cytotoxicity against human KG-1 cells at 0.1-100 uM assessed as decrease in cell viability relative to control; format: functional, cell-based
[10] = target: Phosphorylase b kinase gamma catalytic chain, liver/testis isoform (Homo sapiens) (UniProt P15735); test: Inhibition of DNA-tagged human PHKG2 assessed as percent of control at 50000 nM by qPCR analysis relative to control; parameters: scale not given: the % may be the effect or the level left
[11] = target: Non-receptor tyrosine-protein kinase TYK2 (Homo sapiens) (UniProt P29597); test: Inhibition of DNA-tagged human TYK2 JH2 pseudokinase domain assessed as percent of control at 50000 nM by qPCR analysis relative to control; parameters: scale not given: the % may be the effect or the level left
[12] = target: Serine/threonine-protein kinase NLK (Homo sapiens) (UniProt Q9UBE8); test: Inhibition of DNA-tagged human NLK assessed as percent of control at 50000 nM by qPCR analysis relative to control; parameters: scale not given: the % may be the effect or the level left
[13] = target: Activin receptor type-1-like (Homo sapiens) (UniProt P37023); test: Inhibition of DNA-tagged human ACVRL1 assessed as percent of control at 50000 nM by qPCR analysis relative to control; parameters: scale not given: the % may be the effect or the level left
[14] = target: Dual specificity protein kinase CLK3 (Homo sapiens) (UniProt P49761); test: Inhibition of DNA-tagged human CLK3 assessed as percent of control at 50000 nM by qPCR analysis relative to control; parameters: scale not given: the % may be the effect or the level left
[15] = target: Serine/threonine-protein kinase SIK2 (Homo sapiens) (UniProt Q9H0K1); test: Inhibition of DNA-tagged human SIK2 assessed as percent of control at 50000 nM by qPCR analysis relative to control; parameters: scale not given: the % may be the effect or the level left
[16] = target: Serine/threonine-protein kinase ULK3 (Homo sapiens) (UniProt Q6PHR2); test: Inhibition of DNA-tagged human ULK3 assessed as percent of control at 50000 nM by qPCR analysis relative to control; parameters: scale not given: the % may be the effect or the level left
[17] = target: Tyrosine-protein kinase HCK (Homo sapiens) (UniProt P08631); test: Inhibition of DNA-tagged human HCK assessed as percent of control at 50000 nM by qPCR analysis relative to control; parameters: scale not given: the % may be the effect or the level left
[18] = target: Epidermal growth factor receptor (Homo sapiens) (UniProt P00533); test: Inhibition of DNA-tagged human EGFR assessed as percent of control at 50000 nM by qPCR analysis relative to control; parameters: scale not given: the % may be the effect or the level left
[19] = target: Serine/threonine-protein kinase SBK1 (Homo sapiens) (UniProt Q52WX2); test: Inhibition of DNA-tagged human SBK1 assessed as percent of control at 50000 nM by qPCR analysis relative to control; parameters: scale not given: the % may be the effect or the level left
[20] = target: SRSF protein kinase 2 (Homo sapiens) (UniProt P78362); test: Inhibition of DNA-tagged human SRPK2 assessed as percent of control at 50000 nM by qPCR analysis relative to control; parameters: scale not given: the % may be the effect or the level left
[21] = target: Serine/threonine-protein kinase TBK1 (Homo sapiens) (UniProt Q9UHD2); test: Inhibition of DNA-tagged human TBK1 assessed as percent of control at 50000 nM by qPCR analysis relative to control; parameters: scale not given: the % may be the effect or the level left
[22] = target: Serine/threonine-protein kinase tousled-like 2 (Homo sapiens) (UniProt Q86UE8); test: Inhibition of DNA-tagged human TLK2 assessed as percent of control at 50000 nM by qPCR analysis relative to control; parameters: scale not given: the % may be the effect or the level left
[23] = target: Protein kinase C delta type (Homo sapiens) (UniProt Q05655); test: Inhibition of DNA-tagged human PRKCD assessed as percent of control at 50000 nM by qPCR analysis relative to control; parameters: scale not given: the % may be the effect or the level left
[24] = target: Uncharacterized serine/threonine-protein kinase SBK3 (Homo sapiens) (UniProt P0C264); test: Inhibition of DNA-tagged human SgK110 assessed as percent of control at 50000 nM by qPCR analysis relative to control; parameters: scale not given: the % may be the effect or the level left
[25] = target: AP2-associated protein kinase 1 (Homo sapiens) (UniProt Q2M2I8); test: Inhibition of DNA-tagged human AAK1 assessed as percent of control at 50000 nM by qPCR analysis relative to control; parameters: scale not given: the % may be the effect or the level left
[26] = test system: Tyrosine-protein kinase ABL1 (Homo sapiens), P00519 [F317L]; test: Inhibition of DNA-tagged phosphorylated human ABL1 F317L mutant assessed as percent of control at 50000 nM by qPCR analysis relative to control; parameters: scale not given: the % may be the effect or the level left
[27] = target: Dual specificity mitogen-activated protein kinase kinase 7 (Homo sapiens) (UniProt O14733); test: Inhibition of DNA-tagged human MKK7 assessed as percent of control at 50000 nM by qPCR analysis relative to control; parameters: scale not given: the % may be the effect or the level left
[28] = target: Serine/threonine-protein kinase Nek6 (Homo sapiens) (UniProt Q9HC98); test: Inhibition of DNA-tagged human NEK6 assessed as percent of control at 50000 nM by qPCR analysis relative to control; parameters: scale not given: the % may be the effect or the level left
[29] = target: Mitogen-activated protein kinase kinase kinase 19 (Homo sapiens) (UniProt Q56UN5); test: Inhibition of DNA-tagged human YSK4 assessed as percent of control at 50000 nM by qPCR analysis relative to control; parameters: scale not given: the % may be the effect or the level left

Uncharacterized serine/threonine-protein kinase SBK3 (Homo sapiens), sequence (P0C264 whole entry): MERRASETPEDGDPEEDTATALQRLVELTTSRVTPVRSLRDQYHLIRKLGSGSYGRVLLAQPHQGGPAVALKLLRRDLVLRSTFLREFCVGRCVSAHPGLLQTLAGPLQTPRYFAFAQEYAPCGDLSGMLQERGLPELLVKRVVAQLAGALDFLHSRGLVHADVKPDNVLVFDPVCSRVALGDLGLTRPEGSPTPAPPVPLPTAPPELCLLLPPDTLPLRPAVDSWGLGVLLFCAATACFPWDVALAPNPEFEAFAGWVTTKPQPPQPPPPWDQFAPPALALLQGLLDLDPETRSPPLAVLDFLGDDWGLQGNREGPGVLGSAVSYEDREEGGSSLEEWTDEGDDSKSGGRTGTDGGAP
cGMP-dependent protein kinase 1 (Homo sapiens), sequence (Q13976 whole entry): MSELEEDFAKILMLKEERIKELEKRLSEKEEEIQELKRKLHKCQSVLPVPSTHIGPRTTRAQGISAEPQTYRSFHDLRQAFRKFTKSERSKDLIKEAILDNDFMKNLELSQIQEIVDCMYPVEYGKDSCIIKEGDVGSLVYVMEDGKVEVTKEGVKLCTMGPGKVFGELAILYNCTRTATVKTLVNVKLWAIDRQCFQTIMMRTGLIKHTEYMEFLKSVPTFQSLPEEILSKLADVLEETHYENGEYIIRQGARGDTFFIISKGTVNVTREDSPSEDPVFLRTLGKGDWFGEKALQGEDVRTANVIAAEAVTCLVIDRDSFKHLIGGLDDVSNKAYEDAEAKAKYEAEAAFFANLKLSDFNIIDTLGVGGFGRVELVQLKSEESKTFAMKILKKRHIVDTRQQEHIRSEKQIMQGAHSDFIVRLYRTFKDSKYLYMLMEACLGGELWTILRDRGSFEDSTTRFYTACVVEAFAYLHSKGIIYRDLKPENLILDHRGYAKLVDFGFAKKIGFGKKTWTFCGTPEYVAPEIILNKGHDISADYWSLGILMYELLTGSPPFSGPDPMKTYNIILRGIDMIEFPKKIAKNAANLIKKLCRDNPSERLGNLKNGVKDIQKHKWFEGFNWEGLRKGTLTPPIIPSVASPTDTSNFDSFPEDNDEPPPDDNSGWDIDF
Protein kinase C delta type (Homo sapiens), sequence (Q05655 whole entry, looked up): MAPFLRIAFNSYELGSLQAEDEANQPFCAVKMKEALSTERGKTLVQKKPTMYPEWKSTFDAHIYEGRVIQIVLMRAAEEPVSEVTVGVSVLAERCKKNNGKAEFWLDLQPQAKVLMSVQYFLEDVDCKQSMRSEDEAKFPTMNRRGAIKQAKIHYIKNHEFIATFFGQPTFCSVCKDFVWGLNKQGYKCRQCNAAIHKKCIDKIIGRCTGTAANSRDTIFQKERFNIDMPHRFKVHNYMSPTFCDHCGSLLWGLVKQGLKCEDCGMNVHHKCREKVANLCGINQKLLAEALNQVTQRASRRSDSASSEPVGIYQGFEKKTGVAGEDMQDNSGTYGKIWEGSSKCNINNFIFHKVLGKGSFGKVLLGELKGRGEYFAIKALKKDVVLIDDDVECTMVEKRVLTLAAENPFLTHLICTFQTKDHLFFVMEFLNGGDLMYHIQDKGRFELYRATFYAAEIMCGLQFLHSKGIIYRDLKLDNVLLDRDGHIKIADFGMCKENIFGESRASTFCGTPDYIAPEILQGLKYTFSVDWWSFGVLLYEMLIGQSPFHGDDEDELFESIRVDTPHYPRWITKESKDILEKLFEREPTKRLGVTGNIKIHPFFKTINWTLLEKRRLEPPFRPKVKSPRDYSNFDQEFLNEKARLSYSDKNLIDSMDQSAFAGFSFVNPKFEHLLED
Tyrosine-protein kinase ABL1 (Homo sapiens), P00519 [F317L], sequence (P00519 whole entry F317L): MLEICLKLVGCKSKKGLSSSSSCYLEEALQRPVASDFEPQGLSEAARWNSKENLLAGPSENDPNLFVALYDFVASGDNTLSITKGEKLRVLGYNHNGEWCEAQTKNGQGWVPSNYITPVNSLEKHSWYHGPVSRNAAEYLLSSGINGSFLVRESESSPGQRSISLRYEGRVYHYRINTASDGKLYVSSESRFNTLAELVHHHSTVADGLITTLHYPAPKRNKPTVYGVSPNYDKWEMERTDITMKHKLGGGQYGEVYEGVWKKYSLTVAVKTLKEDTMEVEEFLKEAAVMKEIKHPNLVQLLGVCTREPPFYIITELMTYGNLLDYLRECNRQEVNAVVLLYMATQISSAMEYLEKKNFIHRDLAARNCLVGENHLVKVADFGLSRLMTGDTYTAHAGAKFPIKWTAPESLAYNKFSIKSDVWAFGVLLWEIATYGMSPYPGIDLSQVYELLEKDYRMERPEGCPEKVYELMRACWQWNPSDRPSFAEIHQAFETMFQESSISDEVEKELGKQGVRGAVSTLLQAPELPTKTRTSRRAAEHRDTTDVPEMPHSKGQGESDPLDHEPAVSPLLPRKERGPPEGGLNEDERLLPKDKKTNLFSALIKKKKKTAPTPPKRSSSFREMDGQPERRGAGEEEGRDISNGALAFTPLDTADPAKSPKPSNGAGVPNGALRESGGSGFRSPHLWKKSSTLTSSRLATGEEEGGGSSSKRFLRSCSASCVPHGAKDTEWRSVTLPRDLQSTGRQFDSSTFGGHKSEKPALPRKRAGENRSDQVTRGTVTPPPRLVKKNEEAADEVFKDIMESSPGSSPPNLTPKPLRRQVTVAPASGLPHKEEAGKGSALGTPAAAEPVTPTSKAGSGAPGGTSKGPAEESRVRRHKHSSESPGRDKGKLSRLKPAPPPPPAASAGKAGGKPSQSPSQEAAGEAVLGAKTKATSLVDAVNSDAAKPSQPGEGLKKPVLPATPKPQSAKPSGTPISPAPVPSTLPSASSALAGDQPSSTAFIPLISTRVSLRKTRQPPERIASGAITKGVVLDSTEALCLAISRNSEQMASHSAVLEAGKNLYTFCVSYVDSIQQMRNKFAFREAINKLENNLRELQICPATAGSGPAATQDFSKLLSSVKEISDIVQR
Activin receptor type-1-like (Homo sapiens), sequence (P37023 whole entry): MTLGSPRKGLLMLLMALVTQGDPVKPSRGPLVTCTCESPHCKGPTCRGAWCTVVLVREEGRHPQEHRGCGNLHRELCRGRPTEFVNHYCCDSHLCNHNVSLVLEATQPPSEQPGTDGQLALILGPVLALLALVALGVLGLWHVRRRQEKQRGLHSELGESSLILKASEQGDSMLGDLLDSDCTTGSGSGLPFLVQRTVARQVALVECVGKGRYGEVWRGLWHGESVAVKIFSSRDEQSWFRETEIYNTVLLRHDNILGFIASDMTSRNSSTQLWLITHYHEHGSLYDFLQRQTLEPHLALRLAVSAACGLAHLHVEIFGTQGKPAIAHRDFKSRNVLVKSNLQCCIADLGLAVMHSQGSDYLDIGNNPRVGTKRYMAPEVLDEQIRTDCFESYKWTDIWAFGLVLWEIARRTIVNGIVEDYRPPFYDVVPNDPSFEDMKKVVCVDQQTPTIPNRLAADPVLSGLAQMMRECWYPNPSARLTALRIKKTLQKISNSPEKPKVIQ
Epidermal growth factor receptor (Homo sapiens), sequence (P00533 whole entry): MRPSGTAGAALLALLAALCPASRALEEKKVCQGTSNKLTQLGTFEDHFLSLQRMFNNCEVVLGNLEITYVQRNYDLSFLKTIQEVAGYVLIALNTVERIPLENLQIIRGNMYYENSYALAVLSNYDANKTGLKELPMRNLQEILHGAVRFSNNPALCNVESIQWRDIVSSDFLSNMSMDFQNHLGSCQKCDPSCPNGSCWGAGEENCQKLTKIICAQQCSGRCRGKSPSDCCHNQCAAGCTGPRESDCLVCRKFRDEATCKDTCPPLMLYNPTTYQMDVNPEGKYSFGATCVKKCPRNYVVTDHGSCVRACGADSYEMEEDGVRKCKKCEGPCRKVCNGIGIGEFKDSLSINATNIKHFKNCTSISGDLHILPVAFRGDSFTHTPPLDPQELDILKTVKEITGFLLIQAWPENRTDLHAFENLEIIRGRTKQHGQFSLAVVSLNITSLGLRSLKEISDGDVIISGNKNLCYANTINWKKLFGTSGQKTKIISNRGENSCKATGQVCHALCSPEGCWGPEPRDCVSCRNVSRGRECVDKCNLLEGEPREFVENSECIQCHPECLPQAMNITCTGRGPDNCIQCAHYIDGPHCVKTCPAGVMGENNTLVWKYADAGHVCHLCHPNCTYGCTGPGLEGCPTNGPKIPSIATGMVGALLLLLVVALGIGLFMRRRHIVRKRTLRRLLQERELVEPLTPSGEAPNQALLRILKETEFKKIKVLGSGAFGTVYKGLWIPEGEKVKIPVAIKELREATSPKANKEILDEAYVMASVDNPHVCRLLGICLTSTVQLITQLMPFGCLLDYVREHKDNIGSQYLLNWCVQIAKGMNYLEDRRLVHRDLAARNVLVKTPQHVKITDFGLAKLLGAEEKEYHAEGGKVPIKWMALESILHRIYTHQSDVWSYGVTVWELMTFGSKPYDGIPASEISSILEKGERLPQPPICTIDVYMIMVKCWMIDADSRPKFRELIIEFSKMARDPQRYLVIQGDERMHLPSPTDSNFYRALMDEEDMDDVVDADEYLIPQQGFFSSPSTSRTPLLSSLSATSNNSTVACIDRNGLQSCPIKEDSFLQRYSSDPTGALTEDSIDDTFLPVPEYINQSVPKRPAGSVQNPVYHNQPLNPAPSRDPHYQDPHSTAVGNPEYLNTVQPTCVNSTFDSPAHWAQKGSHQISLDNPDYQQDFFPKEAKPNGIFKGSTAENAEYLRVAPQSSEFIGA
Tyrosine-protein kinase HCK (Homo sapiens), sequence (P08631 2-526 limits assumed): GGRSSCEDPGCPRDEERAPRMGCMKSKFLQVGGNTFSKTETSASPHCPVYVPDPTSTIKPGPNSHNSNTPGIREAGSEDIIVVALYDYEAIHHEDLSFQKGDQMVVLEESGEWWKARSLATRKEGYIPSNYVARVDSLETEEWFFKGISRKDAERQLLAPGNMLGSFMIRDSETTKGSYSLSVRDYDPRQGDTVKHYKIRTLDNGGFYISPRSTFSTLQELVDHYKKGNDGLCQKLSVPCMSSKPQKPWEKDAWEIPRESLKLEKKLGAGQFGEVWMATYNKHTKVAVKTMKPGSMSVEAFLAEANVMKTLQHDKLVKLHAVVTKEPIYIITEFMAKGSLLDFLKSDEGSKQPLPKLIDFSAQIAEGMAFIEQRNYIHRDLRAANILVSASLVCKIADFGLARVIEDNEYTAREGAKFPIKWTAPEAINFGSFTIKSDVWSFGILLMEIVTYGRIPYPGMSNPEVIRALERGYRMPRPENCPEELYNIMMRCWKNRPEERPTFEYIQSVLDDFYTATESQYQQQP

CN1C(=O)/C(=C2/C(=O)Nc3ccccc32)c2ccccc21
Activity [1]: 94%
Activity [2]: 96%
Activity [3]: 94%
Activity [4]: 88%
Activity [5]: 100%
Activity [6]: 97%
Activity [7]: 84%
Activity [8]: 95%
Activity [9]: 100%
Activity (KG-1): Active
Activity [10]: 100%
Activity [11]: 88%
Activity [12]: 100%
Activity [13]: 100%
Activity [14]: 100%
Activity [15]: 95%
Activity [16]: 85%
Activity [17]: 100%
Activity [18]: 100%
Activity [19]: 100%
Activity [20]: 100%
Activity [21]: 50%
Activity [22]: 88%
Activity [23]: 100%
Activity [24]: 100%
Activity [25]: 91%
Activity [26]: 81%
Activity [27]: 75%
Activity [28]: 81%
Activity [29]: 91%

Source: ChEMBL document CHEMBL4804284
